Assay results taken from patent publication US20080305186A1, “Method and Composition for the Treatment of Cardiac Hypertrophy” (BOARD OF REGENTS, THE UNIVERSITY OF TEXAS SYSTEM, priority 2007, published 2008).

Test system: cardiac gene expression
Test: Microarray analysis of cardiac gene expression (GeneChip Mouse Genome 430 2.0)
Assay type: in vivo, mice
Method: Microarray Sample Preparation and Analysis. Animal hearts were rapidly removed, and the atria and right ventricles were cut and immediately plunged into TRIzol Reagent (Life Technologies). Total RNA was isolated following the manufacturer's instructions, purified by phenol-chloroform extraction and then ethanol precipitation, and 20 μg further processed for microarray analysis. Briefly, cDNA synthesis, in vitro transcription, and labeling and fragmentation to produce the oligonucleotide probes were performed as instructed by the GeneChip manufacturer (Affymetrix). The probes were first hybridized to a test array (Affymetrix) and then to the GeneChip Mouse Genome 430 2.0 Array, using the GeneChip Hybridization Oven 640. The chips were washed in a GeneChip Fluidics Station 450 (Affymetrix), and the results were visualized with a GeneChip G7 scanner (Affymetrix). RMA normalization, pairwise comparisons, Student's t test and Benjamini and Hochberg correction were subsequently performed using GeneSifter (VizX Labs, Seattle, Wash.) and Spotfire DecisionSite 8.3 (Spotfire, Inc., Somerville, Mass.).
Effects on Gene Expression Profile. […] One mouse heart was used for each array, and was performed in triplicate, generating a total of 12 arrays. GeneSifter was used to perform RMA normalization, pairwise comparisons of averaged signal intensity values, and Student's t-test with Benjamini and Hochberg correction, and Spotfire was used to perform pairwise comparisons. […] Additionally, genes that were altered between any two N or cardiac hypertrophy samples were removed, as these alterations most likely represented normal variations between mice.

[1] = mouse heart, vs isoproterenol only (CH), CH vs normal 7.4
[2] = mouse heart, vs isoproterenol only (CH), CH vs normal −1.7
[3] = mouse heart, vs isoproterenol only (CH), CH vs normal −1.8
[4] = mouse heart, vs isoproterenol only (CH), CH vs normal −1.9
[5] = mouse heart, vs isoproterenol only (CH), CH vs normal −2.0
[6] = mouse heart, vs isoproterenol only (CH), CH vs normal −2.1
[7] = mouse heart, vs isoproterenol only (CH), CH vs normal −2.4
[8] = mouse heart, vs isoproterenol only (CH), CH vs normal −2.5
[9] = mouse heart, vs isoproterenol only (CH), CH vs normal −2.6
[10] = mouse heart, vs isoproterenol only (CH), CH vs normal −2.7
[11] = mouse heart, vs isoproterenol only (CH), CH vs normal −2.9
[12] = mouse heart, vs isoproterenol only (CH), CH vs normal −3.0
[13] = mouse heart, vs isoproterenol only (CH), CH vs normal −3.2
[14] = mouse heart, vs isoproterenol only (CH), CH vs normal −3.3

NC(=O)N1c2ccccc2C=Cc2ccccc21 [carbamazepine]
FC Membrane-spanning 4-domains, subfamily A, member 6d (Ms4a6d), NM_026835 (mouse heart, vs isoproterenol only (CH), CH vs normal 6.4): −1.6 fold
FC Proteoglycan 4 (megakaryocyte stimulating factor, articular superficial zone protein) (Prg4), NM_021400 (mouse heart, vs isoproterenol only (CH), CH vs normal 6.8): −1.5 fold
FC CCAATenhaer binding protein (CEBP), delta (Cebpd), BB831146 [1]: −1.6 fold
FC Ca(2+)-sensitive chloride channel 2 (Clca2), AF108501 [1]: −2.0 fold
FC Lysyl oxidase (Lox), M65143 [1]: −2.1 fold
FC Cytokine inducible SH2-containing protein 3 (Socs3), BB831725 (mouse heart, vs isoproterenol only (CH), CH vs normal 8.2): −2.4 fold
FC C-type (calcium dependent, carbohydrate recognition domain) lectin, superfamily member 8 (Clecsf8), NM_010819 (mouse heart, vs isoproterenol only (CH), CH vs normal 10.8): −1.7 fold
FC Lysyl oxidase (Lox), NM_010728 (mouse heart, vs isoproterenol only (CH), CH vs normal 11.1): −2.4 fold
FC FK506 binding protein 5 (51 kDa) (Fkbp5), BC015260 (mouse heart, vs isoproterenol only (CH), CH vs normal 16.3): −1.6 fold
FC Lipocalin 2 (Lcn2), X14607 (mouse heart, vs isoproterenol only (CH), CH vs normal 27.7): −1.6 fold
FC Serine protease inhibitor 2-2 (Spi2-2) (Serpin3n), NM_009252 (mouse heart, vs isoproterenol only (CH), CH vs normal 40.5): −2.3 fold
FC Metallophosphoesterase domain containing 2 (Mpped2), AK012553 (mouse heart, vs isoproterenol only (CH), CH vs normal −1.5): 1.6 fold
FC cDNA, BM229539 (mouse heart, vs isoproterenol only (CH), CH vs normal −1.6): 1.6 fold
FC Cytoplasmic polyadenylation element binding protein 3 (Cpeb3), BB281000 [2]: 1.8 fold
FC EphrinB3 (Efnb3), BQ175608 [2]: 1.5 fold
FC Nuclear factor IB (Nfib), BB092799 [2]: 2.0 fold
FC Preimplantation protein 4 (Prei4), BB550273 [2]: 1.7 fold
FC Triple futional domain (PTPRF interacting) (Trio), BB794936 [2]: 1.7 fold
FC EST, BB126796 [3]: 2.2 fold
FC EST, BB451134 [3]: 2.2 fold
FC Metastasis suppressor 1 (Mtss1), BB326749 [3]: 1.6 fold
FC Tetratricopeptide repeat domain (Ttc3), BB833716 [3]: 2.0 fold
FC EST, BM941198 [4]: 1.7 fold
FC Jumonji, AT rich interactive domain 1A (Rbp2 like) (Jarid1a), BB376407 [4]: 1.8 fold
FC Guanine nucleotide binding protein, alpha 12 (Gna12), NM_010302 [5]: 1.6 fold
FC Zi finger and BTB domain containing 20 (Zbtb20), BB175650 [5]: 1.9 fold
FC C1q and tumor necrosis factor related protein 4 (C1qtnf4), NM_026161 [6]: 1.5 fold
FC Cold inducible RNA binding protein (Cirbp), NM_007705 [6]: 2.1 fold
FC Adrenergic receptor, alpha 1b (Adra1b), NM_007416 (mouse heart, vs isoproterenol only (CH), CH vs normal −2.3): 1.6 fold
FC DNA segment, Chr 9, ERATO Doi 256, expressed, BG066667 [7]: 1.8 fold
FC Insulin degrading enzyme (Ide), AK014703 [7]: 1.9 fold
FC Sno, strawbeny notch homolog 1 (Sno1), BE947961 [7]: 1.6 fold
FC B-cell translocation gene 2, anti-proliferative (Btg2), BG965405 [8]: 1.8 fold
FC cDNA, BC026793 [8]: 1.8 fold
FC Desmoglein 2 (Dsg2), AB072269 [9]: 2.5 fold
FC Heat shock protein, 84 kDa 1 (Hsp90ab1), BI154147 [9]: 3.7 fold
FC Myocyte enhaer factor 2C (Mef2c), AI595932 [9]: 1.9 fold
FC Restin-like 2 (Rsnl2), AK018895 [9]: 1.9 fold
FC Jumonji domain containing 3 (Jmjd3), AW763746 [10]: 1.9 fold
FC cDNA (similar to integrin beta 1 binding protein 3), AK009897 [10]: 2.7 fold
FC Karyopherin (importin) beta 1 (Kpnb1), AW544889 (mouse heart, vs isoproterenol only (CH), CH vs normal −2.8): 2.3 fold
FC PPAR gamma coactivator-1beta protein (Ppargc1b), NM_133249 [11]: 2.0 fold
FC SET and MYND domain containing 1 (Smyd1), NM_009762 [11]: 1.7 fold
FC Dual specificity phosphatase 8 (Dusp8), NM_008748 [12]: 1.8 fold
FC GATA binding protein 4 (Gata4), NM_008092 [12]: 2.1 fold
FC Actin, beta, cytoplasmic (Actb), AW537707 [13]: 1.7 fold
FC Methionine sulfoxide reductase B3 (Msrb3), BB277041 [13]: 1.7 fold
FC Thymoma viral proto-oogene 1 (Akt1), M94335 [14]: 1.6 fold
FC cDNA, BB283973 [14]: 1.9 fold
FC cDNA, BB534971 (mouse heart, vs isoproterenol only (CH), CH vs normal −3.5): 1.6 fold
FC cDNA, BB026304 (mouse heart, vs isoproterenol only (CH), CH vs normal −3.8): 2.5 fold
FC Kinesin-like protein (Kif1b), D17577 (mouse heart, vs isoproterenol only (CH), CH vs normal −3.9): 1.6 fold
FC Kv channel-interacting protein 2a (Kcnip2), AF439339 (mouse heart, vs isoproterenol only (CH), CH vs normal −4.4): 2.6 fold
FC Potassium voltage-gated channel, Isk-related subfamily, member 1 (Kcne1), NM_008424 (mouse heart, vs isoproterenol only (CH), CH vs normal −4.6): 1.5 fold
FC Tumor rejection antigen gp96 (Tra1); heat shock protein 90 kDa beta (Grp94), member 1 (Hsp90b1), BE995678 (mouse heart, vs isoproterenol only (CH), CH vs normal −9.4): 2.7 fold
FC Cadherin 13 (Cdh13), AK016527 (mouse heart, vs isoproterenol only (CH), CH vs normal −10.0): 5.9 fold
number of the 472 cardiac hypertrophy-specific Combo-altered genes also altered by the drug alone (statistical parameters lifted (average fold-changes irrespective of statistical measures)): 98
G7e protein gene, fold-change (the only gene significantly altered): −2.2 fold
